Assay [1] is described as follows: Binding affinity to human cloned dopamine D4.4 receptor expressed in CHO cells. The class given is cell-based.
For assay [2], the target named is T1, D(1A) dopamine receptor (Homo sapiens, UniProt P21728). Description: Displacement of [3H]SCH 23390 from human cloned dopamine D1 receptor expressed in HEK 293 cells. The class given is cell-based, HEK293. (In a radioligand displacement assay an active substance lowers the binding of a labelled ligand.)
Assay [3] addresses T2, D(1B) dopamine receptor (Homo sapiens, UniProt P21918). Description: Binding affinity to human cloned dopamine D5 receptor expressed in HEK 293 cells. The class given is cell-based, HEK293.
In a further assay the target is D(3) dopamine receptor (Homo sapiens, UniProt P35462). Nature of the assay: Binding affinity to human cloned dopamine D3 receptor expressed in CHO cells. The assay is classed as cell-based.
The target in assay [4] is T3, D(2) dopamine receptor (Homo sapiens, UniProt P14416). Nature of the assay: Displacement of [3H]spiperone from human cloned dopamine D2L receptor expressed in CHO cells. The class given is cell-based.
Assay [5] addresses T2, D(1B) dopamine receptor. Description: Activity at human dopamine D5 receptor assessed as SKF 38393-induced suppression of calcium signal by calcium fluorescence assay. The assay is classed as functional.
In assay [6] the target is T3, D(2) dopamine receptor. Nature of the assay: Activity at human dopamine D2 receptor assessed as quinpirol-induced suppression of calcium signal by calcium fluorescence assay. The assay is classed as functional.
The target of assay [7] is T2, D(1B) dopamine receptor. Description: Agonist activity at human dopamine D5 receptor assessed as increase in […] calcium concentration by calcium fluorescence assay. The assay is classed as functional.
Assay [8] has as its target T3, D(2) dopamine receptor. Description: Agonist activity at human dopamine D2 receptor assessed as increase in […] calcium concentration by calcium fluorescence assay. The assay is classed as functional.
Assay [9] has as its target T1, D(1A) dopamine receptor. Description: Agonist activity at human dopamine D1 receptor assessed as increase in […] calcium concentration by calcium fluorescence assay. The assay is classed as functional.

The source made the active and inactive calls. The calls are words filed in the database; no cut-off is given here.

Chain of D(3) dopamine receptor (P35462 whole entry): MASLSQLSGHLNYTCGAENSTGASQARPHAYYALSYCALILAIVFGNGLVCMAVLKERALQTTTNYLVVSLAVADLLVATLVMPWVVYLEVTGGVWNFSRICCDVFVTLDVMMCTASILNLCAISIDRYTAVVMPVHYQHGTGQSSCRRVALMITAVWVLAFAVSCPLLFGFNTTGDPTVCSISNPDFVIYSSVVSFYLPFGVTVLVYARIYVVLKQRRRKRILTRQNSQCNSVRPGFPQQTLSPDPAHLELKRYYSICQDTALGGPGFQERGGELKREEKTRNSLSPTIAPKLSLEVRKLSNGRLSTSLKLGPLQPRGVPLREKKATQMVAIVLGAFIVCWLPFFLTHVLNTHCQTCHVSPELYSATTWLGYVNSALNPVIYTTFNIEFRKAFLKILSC
T2 sequence (P21918 whole entry): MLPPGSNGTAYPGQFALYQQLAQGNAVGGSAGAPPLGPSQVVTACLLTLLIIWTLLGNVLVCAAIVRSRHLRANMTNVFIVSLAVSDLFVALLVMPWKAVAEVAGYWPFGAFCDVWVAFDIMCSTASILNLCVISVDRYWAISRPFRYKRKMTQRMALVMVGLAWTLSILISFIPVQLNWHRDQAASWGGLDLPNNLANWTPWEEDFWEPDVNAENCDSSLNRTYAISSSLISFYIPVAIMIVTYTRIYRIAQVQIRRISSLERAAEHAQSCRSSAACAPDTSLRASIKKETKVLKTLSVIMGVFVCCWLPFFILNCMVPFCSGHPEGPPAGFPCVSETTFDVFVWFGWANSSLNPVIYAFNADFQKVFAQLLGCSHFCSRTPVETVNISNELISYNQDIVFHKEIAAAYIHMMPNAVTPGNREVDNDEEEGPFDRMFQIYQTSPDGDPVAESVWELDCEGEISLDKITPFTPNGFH
T3 sequence (P14416 whole entry): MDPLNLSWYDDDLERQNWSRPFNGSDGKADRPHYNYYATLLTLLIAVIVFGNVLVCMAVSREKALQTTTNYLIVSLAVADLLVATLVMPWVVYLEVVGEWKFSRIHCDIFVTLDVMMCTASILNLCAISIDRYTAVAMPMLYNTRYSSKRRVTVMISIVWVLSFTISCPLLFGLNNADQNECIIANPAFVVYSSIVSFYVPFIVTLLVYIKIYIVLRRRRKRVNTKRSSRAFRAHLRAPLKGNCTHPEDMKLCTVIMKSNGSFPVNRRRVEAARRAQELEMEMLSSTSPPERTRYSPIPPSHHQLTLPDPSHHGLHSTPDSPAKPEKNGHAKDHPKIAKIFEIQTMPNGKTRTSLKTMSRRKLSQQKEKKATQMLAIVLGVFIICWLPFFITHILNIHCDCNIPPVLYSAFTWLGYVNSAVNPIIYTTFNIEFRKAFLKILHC
T1 sequence (P21728 whole entry): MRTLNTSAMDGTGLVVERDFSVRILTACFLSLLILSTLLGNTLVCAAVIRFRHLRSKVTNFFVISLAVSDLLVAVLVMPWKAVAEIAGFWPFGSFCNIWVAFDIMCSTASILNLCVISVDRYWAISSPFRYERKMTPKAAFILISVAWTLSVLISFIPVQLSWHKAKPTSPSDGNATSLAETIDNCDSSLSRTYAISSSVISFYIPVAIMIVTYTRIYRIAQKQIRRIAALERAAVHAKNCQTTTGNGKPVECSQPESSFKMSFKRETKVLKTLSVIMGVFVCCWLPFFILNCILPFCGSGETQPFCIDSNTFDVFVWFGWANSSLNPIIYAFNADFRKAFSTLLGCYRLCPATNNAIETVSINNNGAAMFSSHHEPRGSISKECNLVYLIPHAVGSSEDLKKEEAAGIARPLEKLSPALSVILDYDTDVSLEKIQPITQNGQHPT

Consider `COc1ccc2c(c1)CCN(C)CCc1c([nH]c3ccccc13)C2`, for which the Ki (as a rule, the dissociation constant of the complex between target and ligand, obtained from inhibition or displacement) in assay [1] is 92.6 nM; at D(1A) dopamine receptor [2], 19 nM; at D(1B) dopamine receptor [3] it was 31.5 nM; on D(3) dopamine receptor, 1140 nM; at D(2) dopamine receptor [4], 22.8 nM.

Turning to `CN1CCc2ccccc2Cc2[nH]c3ccc(O)cc3c2CC1`, the Ki worked out at 398 nM in assay [1]; 0.56 nM on D(1A) dopamine receptor [2]; 0.39 nM on D(1B) dopamine receptor [3]; 944 nM on D(3) dopamine receptor; 38.4 nM at D(2) dopamine receptor [4].

On to `COc1ccc2[nH]c3c(c2c1)CCN(C)CCc1ccccc1C3`, for which the Ki is 266 nM in assay [1]; 0.82 nM on D(1A) dopamine receptor [2]; 3.6 nM on D(1B) dopamine receptor [3]; 475 nM at D(3) dopamine receptor; 11.9 nM at D(2) dopamine receptor [4].

As to `CN1CCc2cc(O)ccc2Cc2[nH]c3ccccc3c2CC1`, the Ki in [1] amounted to 1360 nM; on D(1A) dopamine receptor [2], 3.7 nM; on D(1B) dopamine receptor [3], 5.4 nM; at D(3) dopamine receptor it was 2070 nM; on D(2) dopamine receptor [4], 74.7 nM.

In the case of `COc1ccc2c(c1)c1c(n2C)Cc2ccccc2CCN(C)CC1`, the Ki in [1] was found to be 21.6 nM; at D(1A) dopamine receptor [2] it was 2 nM; on D(1B) dopamine receptor [3], 0.23 nM; on D(3) dopamine receptor, 3.78 nM; at D(2) dopamine receptor [4], 1.7 nM.

As for `CN1CCc2ccccc2Cc2[nH]c3ccccc3c2CC1`, the Ki in assay [1] was determined as 109 nM; on D(3) dopamine receptor it was 40.3 nM. In addition, the result on D(1B) dopamine receptor [5] and at D(2) dopamine receptor [6] was Active. The outcome on D(1B) dopamine receptor [7], at D(2) dopamine receptor [8] and on D(1A) dopamine receptor [9] was inactive.

Consider `COc1ccc2c(c1)CCN(C)CCc1ccccc1C2`, for which the Ki in assay [1] amounted to 43.4 nM; on D(1B) dopamine receptor [3] it was 38.3 nM.

In the case of `CN1CCc2ccccc2Cc2ccc(O)cc2CC1`, the outcome on D(1B) dopamine receptor [7] and on D(1A) dopamine receptor [9] was inactive.

The values above are taken from ChEMBL document CHEMBL1139077, “Dopamine/serotonin receptor ligands. Part 15: Oxygenation of the benz-indolo-azecine LE 300 leads to novel subnanomolar dopamine D1/D5 antagonists” (Bioorg Med Chem Lett, 2007).
